Structures can show the parent of a compound that is named as a salt.
Compared with `N[C@H](Cc1c[nH]c2ccccc12)C(=O)NC1(C(=O)O)Cc2ccc(-c3ccc(Cl)cc3)cc2C1` (stereo partly drawn) (as salt: hydrochloride) [Example B122, 5-(4-Chlorophenyl)-2-(D-tryptophylamino)indan-2-carboxylic acid hydrochloride], `CC(C)(C)OC(=O)N[C@H](Cc1c[nH]c2ccccc12)C(=O)NC1(C(=O)O)Cc2ccc(-c3ccc(Cl)cc3)cc2C1` (stereo partly drawn) [Example B119, 2-{[N-(tert-Butoxycarbonyl)-D-tryptophyl]amino}-5-(4-chlorophenyl)indan-2-carboxylic acid] is lower in melting point: 168 to 170 °C for the first, 158 °C for the second.

First: Cc1nc2ccccc2n1CC(=O)NC1(C(=O)O)Cc2ccc(-c3ccc(Cl)cc3)cc2C1 (centres unmarked) (as salt: hydrochloride) [Example B159, 5-(4-Chlorophenyl)-2-{[(2-methyl-1H-benzimidazol-1-yl)acetyl]amino}indan-2-carboxylic acid hydrochloride]
Second: O=C(CSc1nc2ccccc2s1)NC1(C(=O)O)Cc2ccc(-c3ccc(Cl)cc3)cc2C1 (centres unmarked) [Example B117, 2-{[(1,3-Benzothiazol-2-ylthio)acetyl]amino}-5-(4-chlorophenyl)indan-2-carboxylic acid]
The melting point of the first is higher: 284 to 285 °C for the first, 205 to 207 °C for the second.

Compared with `O=C(Cc1cccnc1)NC1(C(=O)O)Cc2ccc(-c3ccc(Cl)cc3)cc2C1` (centres unmarked) (as salt: hydrochloride) [Example B175, 5-(4-Chlorophenyl)-2-[(pyridin-3-ylacetyl)amino]indan-2-carboxylic acid hydrochloride], `O=C(Cc1cccc(Cl)c1)NC1(C(=O)O)Cc2ccc(-c3ccc(Cl)cc3)cc2C1` (centres unmarked) [Example B138, 5-(4-Chlorophenyl)-2-{[(3-chlorophenyl)acetyl]amino}indan-2-carboxylic acid] is lower in melting point: 288 °C for the first, 234 °C for the second.

Compared with `Cc1c(C(=O)NC(Cc2ccc(OCc3ccc(F)cc3)cc2)C(=O)O)oc2cc(-c3ccc(Cl)cc3)ccc12` (racemic) [Example C117, N-{[6-(4-Chlorophenyl)-3-methyl-1-benzofuran-2-yl]carbonyl}-O-(4-fluorobenzyl)-DL-tyrosine], `O=C(Cc1ccc(OCc2ccc(F)cc2)cc1)Nc1c(C(=O)O)oc2cc(-c3ccc(Cl)cc3)ccc12` [Example A24, 6-(4-Chlorophenyl)-3-[({4-[(4-fluorobenzyl)oxy]phenyl}acetyl)amino]-1-benzofuran-2-carboxylic acid] is higher in melting point: 147 to 149 °C for the first, 205 to 206 °C for the second.

Compared with `O=C(Cc1ccc(OCc2ccccc2)cc1)Nc1c(C(=O)O)oc2cc(-c3ccc(Cl)cc3)ccc12` [Example A23, 3-({[4-(Benzyloxy)phenyl]acetyl}amino)-6-(4-chlorophenyl)-1-benzofuran-2-carboxylic acid], `O=C(CCc1ccc(OCc2ccccc2)cc1)Nc1c(C(=O)O)oc2cc(-c3ccc(Cl)cc3)ccc12` [Example A25, 3-({3-[4-(Benzyloxy)phenyl]propanoyl}amino)-6-(4-chlorophenyl)-1-benzofuran-2-carboxylic acid] is lower in melting point: 211 to 212 °C for the first, 209 to 210 °C for the second.

First: CC(C)(C)OC(=O)NCCC(=O)NC1(C(=O)O)Cc2ccc(-c3ccc(Cl)cc3)cc2C1 (centres unmarked) [Example B118, 2-{[3-(tert-Butoxycarbonylamino)propionyl]amino}-5-(4-chlorophenyl) indan-2-carboxylic acid]
Second: CC(C)(C)OC(=O)N[C@@H](Cc1ccccc1)C(=O)NC1(C(=O)O)Cc2ccc(-c3ccc(Cl)cc3)cc2C1 (some centres unmarked) [Example B120, 2-{[N-(tert-Butoxycarbonyl)phenylalanyl]amino}-5-(4-chlorophenyl)indan-2-carboxylic acid]
The melting point of the first is higher: 212 to 214 °C for the first, 140 to 142 °C for the second.

Compared with `O=C(CN1CCN(c2ccccc2)CC1)NC1(C(=O)O)Cc2ccc(-c3ccc(Cl)cc3)cc2C1` (centres unmarked) [Example B124, 5-(4-Chlorophenyl)-2-{[(4-phenylpiperazine-1-yl)acetyl]amino)indan-2-carboxylic acid], `CC(C(=O)NC1(C(=O)O)Cc2ccc(-c3ccc(Cl)cc3)cc2C1)c1ccccc1` (centres unmarked) [Example B139, 5-(4-Chlorophenyl)-2-[(2-phenylpropanoyl)amino]indan-2-carboxylic acid] is lower in melting point: 247 °C for the first, 200 to 201 °C for the second.

First: O=C(Cc1ccccc1OCc1ccccc1)NC1(C(=O)O)Cc2ccc(-c3ccc(Cl)cc3)cc2C1 (centres unmarked) [Example B126, 2-({[2-(Benzyloxy)phenyl]acetyl}amino)-5-(4-chlorophenyl)indan-2-carboxylic acid]
Second: O=C(Cc1ccc(OCc2ccccc2F)cc1)NC1(C(=O)O)Cc2ccc(-c3ccc(Cl)cc3)cc2C1 (centres unmarked) [Example B141, 5-(4-Chlorophenyl)-2-[({4-[(2-fluorobenzyl)oxy]phenyl}acetyl)amino]indan-2-carboxylic acid]
The melting point of the first is higher: 245 °C for the first, 232 to 233 °C for the second.

First: O=C(Cc1ccc(Cl)cc1)NC1(C(=O)O)Cc2ccc(-c3ccc(Cl)cc3)cc2C1 (centres unmarked) [Example B127, 5-(4-Chlorophenyl)-2-{[(4-chlorophenyl)acetyl]amino}indan-2-carboxylic acid]
Second: CS(=O)(=O)c1ccc(CC(=O)NC2(C(=O)O)Cc3ccc(-c4ccc(Cl)cc4)cc3C2)cc1 (centres unmarked) [Example B135, 5-(4-Chlorophenyl)-2-({[4-(methylsulfonyl)phenyl]acetyl}amino)indan-2-carboxylic acid]
The melting point of the first is higher: 251 °C for the first, 216 °C for the second.

First: O=C(CN1CCN(C(c2ccc(F)cc2)c2ccc(F)cc2)CC1)NC1(C(=O)O)Cc2ccc(-c3ccc(Cl)cc3)cc2C1 (centres unmarked) [Example B128, 2-[({4-[bis(4-Fluorophenyl)methyl]piperazine-1-yl)acetyl)amino]-5-(4-chlorophenyl)indan-2-carboxylic acid]
Second: O=C(Cc1ccc(NC(=O)c2ccc(F)cc2)cc1)NC1(C(=O)O)Cc2ccc(-c3ccc(Cl)cc3)cc2C1 (centres unmarked) [Example B140, 5-(4-Chlorophenyl)-2-[({4-[(4-fluorobenzoyl)amino]phenyl}acetyl)amino]indan-2-carboxylic acid]
The melting point of the first is lower: 184 °C for the first, 252 to 254 °C for the second.

First: Cc1c(C(=O)NC2(C(=O)O)Cc3ccc(-c4ccc(Cl)cc4)cc3C2)oc2cc(-c3ccc(Cl)cc3)ccc12 (centres unmarked) [Example B129, 5-(4-Chlorophenyl)-2-({[6-(4-chlorophenyl)-3-methyl-1-benzofuran-2-yl]carbonyl}amino)indan-2-carboxylic acid]
Second: O=C(Cc1ccc(OCc2ccc(Cl)cc2)cc1)NC1(C(=O)O)Cc2ccc(-c3ccc(Cl)cc3)cc2C1 (centres unmarked) [Example B143, 2-[({4-[(4-Chlorobenzyl)oxy]phenyl}acetyl)amino]-5-(4-chlorophenyl)indan-2-carboxylic acid]
The melting point of the first is higher: 257 °C for the first, 230 to 232 °C for the second.

Compared with `O=C(O)C1(NS(=O)(=O)Cc2ccc(F)cc2)Cc2ccc(-c3ccc(Cl)cc3)cc2C1` (centres unmarked) [Example B130, 5-(4-Chlorophenyl)-2-{[(4-fluorobenzyl)sulfonyl]amino}indan-2-carboxylic acid], `O=C(CCc1ccc(F)cc1)NC1(C(=O)O)Cc2ccc(-c3ccc(Cl)cc3)cc2C1` (centres unmarked) [Example B132, 5-(4-Chlorophenyl)-2-{[3-(4-fluorophenyl)propanoyl]amino}indan-2-carboxylic acid] is higher in melting point: 210 to 213 °C for the first, 220 °C for the second.

First: COc1ccc(-c2ccc3c(c2)CC(NC(=O)Cc2ccc(F)cc2)(C(=O)O)C3)cc1 (centres unmarked) [Example B131, 2-{[(4-Fluorophenyl)acetyl]amino}-5-(4-methoxyphenyl)indan-2-carboxylic acid]
Second: O=C(Cc1ccc(OCc2ccc(F)cc2Cl)cc1)NC1(C(=O)O)Cc2ccc(-c3ccc(Cl)cc3)cc2C1 (centres unmarked) [Example B144, 2-[({4-[(2-Chloro-4-fluorobenzyl)oxy]phenyl}acetyl)amino]-5-(4-chlorophenyl)indan-2-carboxylic acid]
The melting point of the first is higher: 227 °C for the first, 200 to 201 °C for the second.

First: O=C(NC1(C(=O)O)Cc2ccc(-c3ccc(Cl)cc3)cc2C1)c1ccc(F)cc1 (centres unmarked) [Example B133, 5-(4-Chlorophenyl)-2-[(4-fluorobenzoyl)amino]indan-2-carboxylic acid]
Second: O=C(NC1(C(=O)O)Cc2ccc(-c3ccc(Cl)cc3)cc2C1)c1ccc2ncsc2c1 (centres unmarked) [Example B137, 2-[(1,3-Benzothiazol-6-ylcarbonyl)amino]-5-(4-chlorophenyl)indan-2-carboxylic acid]
The melting point of the first is higher: 251 °C for the first, 210 °C for the second.

Compared with `O=C(Cc1ccccc1Cl)NC1(C(=O)O)Cc2ccc(-c3ccc(Cl)cc3)cc2C1` (centres unmarked) [Example B136, 5-(4-Chlorophenyl)-2-{[(2-chlorophenyl)acetyl]amino}indan-2-carboxylic acid], `O=C(Cc1ccc(OCc2ccoc2)cc1)NC1(C(=O)O)Cc2ccc(-c3ccc(Cl)cc3)cc2C1` (centres unmarked) [Example B146, 5-(4-Chlorophenyl)-2-({[4-(3-furylmethoxy)phenyl]acetyl}amino)indan-2-carboxylic acid] is lower in melting point: 222 °C for the first, 200 to 202 °C for the second.

First: O=C(Cc1ccc(OCc2cccc(F)c2)cc1)NC1(C(=O)O)Cc2ccc(-c3ccc(Cl)cc3)cc2C1 (centres unmarked) [Example B142]
Second: O=C(Cc1ccc(OCc2ccsc2)cc1)NC1(C(=O)O)Cc2ccc(-c3ccc(Cl)cc3)cc2C1 (centres unmarked) [Example B147, 5-(4-Chlorophenyl)-2-({[4-(3-thienylmethoxy)phenyl]acetyl}amino)indan-2-carboxylic acid]
The melting point of the first is lower: 209 °C for the first, 224 to 226 °C for the second.

Compared with `O=C(Cc1ccc(OCc2ccc(C(F)(F)F)cc2)cc1)NC1(C(=O)O)Cc2ccc(-c3ccc(Cl)cc3)cc2C1` (centres unmarked) [Example B145, 5-(4-Chlorophenyl)-2-{[(4-{[4-(trifluoromethyl)benzyl]oxy}phenyl)acetyl]amino)indan-2-carboxylic acid], `O=C(O)CNC(=O)C1(NC(=O)Cc2ccc(OCc3ccc(F)cc3)cc2)Cc2ccc(-c3ccc(Cl)cc3)cc2C1` (centres unmarked) [Example B149, N-({5-(4-Chlorophenyl)-2-[({4-[(4-fluorobenzyl)oxy]phenyl}acetyl)amino]-2,3-dihydro-1H-inden-2-yl}carbonyl)glycine] is lower in melting point: 237 to 238 °C for the first, 209 to 210 °C for the second.

In the case of `O=C(O)CNC(=O)C1(NC(=O)Cc2ccc(OCc3ccccc3)cc2)Cc2ccc(-c3ccc(Cl)cc3)cc2C1` (centres unmarked) [Example B148, N-{[2-({[4-(Benzyloxy)phenyl]acetyl)amino)-5-(4-chlorophenyl)-2,3-dihydro-1H-inden-2-yl]carbonyl}glycine], the melting point is reported as 217 to 218 °C.
